Results published in US20260355184A1, “SMALL MOLECULE DEGRADERS OF HIV-1 TAT PROTEIN” (priority 2022, published 2026).
“Also recorded” adds a separate entry of the source.

How the values were obtained:
[1] = test system: OM10.1 cells; test: Cell-associated HIV Gag mRNA expression / HIV transcription in latently infected OM10.1 cells; format: cell-based; details: 96-day period with ARVs, n=1
Method: (§1) Next, the activity of these leads against HIV infection was evaluated using the reporter cell line HeLa-CD4-LTR-LacZ, which stably expresses the β-galactosidase (β-Gal) gene under the control of the HIV 5′ LTR. The HIV NL4.3 strain was used for these studies and β-Gal activity was measured 72 hrs post infection (FIG. 3A). Cytotoxicity assays using Cell-Titer-Glo were performed in parallel to assess cell viability (FIG. 3A). […] Their anti-HIV activity was further assessed in acute replication of Jurkat T cells with the NL4.3 strain (FIG. 3A). […] These OM10.1 cells contain a single integrated wild-type provirus, while ACH-2 cells contain a single integrated provirus with a TAR mutation C37T, defective Tat-TAR feedback loop (FIG. 3B).

[2] = test system: ACH-2 cells; test: Cell-associated HIV Gag mRNA expression / HIV transcription in latently infected ACH-2 cells; format: cell-based; details: ACH2; 96-day period with ARVs; n=1
Method: as §1

[3] = test system: OM10.1 and ACH-2 cells; test: Toxicity / cell viability in latent cell models; details: OM10.1 and ACH2; 96-day period with ARVs
Method: as §1

[4] = test system: ACH2 cells; test: SAHA mediated reactivation from latency in ACH2 cells; format: cell-based, HIV; details: text: day 12 and 32, FIG. 4B legend: day 12, vs DMSO+ARVs
[5] = test system: TAR-SIIB promoter (Flag-Tat-Rev fusion protein); test: Flag-Tat-Rev fusion protein transactivation of TAR-SIIB promoter; format: cell-based, HIV-1; details: SIIB reporter HEK293T
Method: FIG. 4. […] Shown is n=1. […] Shown is n=1. ARVs: antiretrovirals: 100 nM Efavirenz, 200 nM Lamivudine and 200 nM Raltegravir. C. […] SIIB: a reporter HEK293T stable cell line where the essential apical region of TAR was replaced by the 29-nucleotide stem-loop IIB (SIIB) subdomain of the HIV-1 RRE. A Tat-Rev fusion protein activates transcription of luciferase when Rev binds SIIB, bringing Tat and P-TEFb to RNAPII at the HIV promoter. Shown is mean±SEM of n=4.

[6] = target: Tat protein (ubiquitin chains) (Human immunodeficiency virus type 1 (HXB3 ISOLATE), UniProt P69698); test: Ubiquitin linkage assay: HA-Ubiquitin lysine mutants and Flag-Tat in HEK293T, western blot; format: cell-based, HIV; details: HA-Ubiquitin mutants, TT-44881 60 μM, 24 hours
Chain of Tat protein (ubiquitin chains) (P69698 whole entry): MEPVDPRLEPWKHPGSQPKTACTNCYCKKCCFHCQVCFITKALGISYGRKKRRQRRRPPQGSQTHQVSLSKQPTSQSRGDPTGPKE
Description: FIG. 10. TT-44881's anti-HIV activity engages heterogenous lysine linked Ubiquitin chains (K48 and K33 chains). A. Example of covalent binding of the Ubiquitin chains to the lysine residues of the Tat protein. B. Schematic of the different Ubiquitin chains that can be linked to the Tat protein to induce its degradation or stabilization. C. […] HEK293T cells overexpressing HA-Ubiquitin proteins (which have each lysine singly mutated to arginine or only one lysine present) and Flag-Tat protein were treated with TT-44881. Western blot assays were performed 24 hours later. TT-44881: 60 μM. Shown is representative of n=3.
Which Ubiquitin linkage engaged in the TT-44881 degradation activity was also investigated. HEK293T cells were transfected with Tat protein and HA-Ubiquitin which has each lysine singly mutated to arginine or only one lysine present.

| Compound | HIV transcription (in words) [1] | HIV transcription (in words) [2] | cell viability [3] | SAHA mediated reactivation from latency [4] | Flag-Tat-Rev transactivation of TAR-SIIB [5] | ubiquitin chain linkages engaged in Tat degradation [6] |
| --- | --- | --- | --- | --- | --- | --- |
| COCCOc1ccc(C(F)(F)F)cc1NC(=O)Cn1cc(C(F)(F)F)cc(Cl)c1=O [TT-44863] | inhibit HIV transcription | inhibit HIV transcription | without affecting cell viability | potently blocked SAHA mediated reactivation from latency | inhibit Tat-Rev fusion protein transactivation | – |
| O=C(CCCCN1CCCC1=O)c1nn(-c2ccccc2)c2c1CCC2 [TT-44881] | inhibit HIV transcription | inhibit HIV transcription | without affecting cell viability | potently blocked SAHA mediated reactivation from latency | inhibit Tat-Rev fusion protein transactivation | K48-linked ubiquitin chains are involved in TT-44881 activity, K33 linked ubiquitin chains also seemed to be engaged; also recorded: blocks TT-44881 induced Tat degradation |
